In BindingDB's records for doi:10.1111/j.1747-0285.2009.00842.x (Universita Degli Studi Di Firenze, 2009):

Legend:
Carbonic anhydrase 2 = Carbonic anhydrase 2 (Homo sapiens, UniProt P00918); experiment: Inhibition Assay; settings: pH 7.4; 25 °C
Carbonic anhydrase 7 = Carbonic anhydrase 7 (Homo sapiens, UniProt P43166); experiment: Inhibition Assay; settings: pH 7.4; 25 °C
Carbonic anhydrase 7, sequence (P43166 whole entry): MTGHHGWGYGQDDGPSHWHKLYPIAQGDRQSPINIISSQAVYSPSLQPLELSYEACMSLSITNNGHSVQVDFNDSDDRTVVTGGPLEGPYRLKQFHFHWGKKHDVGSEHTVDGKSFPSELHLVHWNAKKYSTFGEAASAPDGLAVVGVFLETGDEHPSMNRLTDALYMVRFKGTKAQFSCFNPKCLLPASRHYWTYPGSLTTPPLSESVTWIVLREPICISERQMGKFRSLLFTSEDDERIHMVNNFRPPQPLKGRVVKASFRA

Structure (SMILES)	Ki (Carbonic anhydrase 2) [nM]	Ki (Carbonic anhydrase 7) [nM]
NS(=O)(=O)c1ccc(I)cc1 [p-Halide-sulfanilamide derivative, 3]	81	
CN(C)S(=O)(=O)c1ccc(N=Nc2ccc(O)cc2)cc1 [p-Phenyldiazenyl derivative, 7]	312	752
NS(=O)(=O)c1ccc(O)cc1 [p-Hydroxy-benzene derivative, 3a]		88
NS(=O)(=O)c1ccc(Cl)cc1 [p-Halide-sulfanilamide derivative, 2]	17.5	
NS(=O)(=O)c1ccc(Br)cc1 [p-Halide-sulfanilamide derivative, 2a]		68
COc1ccc(/N=N/c2ccc(S(=O)(=O)N(C)C)cc2)cc1 [p-Phenyldiazenyl derivative, 6]	863	4200
CN(C)c1ccc(/N=N/c2ccc(S(N)(=O)=O)cc2)cc1		30
CNS(=O)(=O)c1ccc(N=Nc2ccc(O)cc2)cc1 [p-Phenyldiazenyl derivative, 8]	277	706
